From PMC7317212 (Chemmedchem, 2020)

Legend:
mGAT4 = target: T1, mGAT4 (Mus musculus, UniProt P31650); experiment: [^3H]GABA uptake assay, HEK293 cells expressing mGAT4; format: cell-based; conditions: for IC50: [^3H]GABA uptake, pIC50±SEM; for remaining activity at 100 µM: HEK293
T1 construct: expressed in transfected cells; host or cells: HEK293
T1 sequence (P31650 1-627): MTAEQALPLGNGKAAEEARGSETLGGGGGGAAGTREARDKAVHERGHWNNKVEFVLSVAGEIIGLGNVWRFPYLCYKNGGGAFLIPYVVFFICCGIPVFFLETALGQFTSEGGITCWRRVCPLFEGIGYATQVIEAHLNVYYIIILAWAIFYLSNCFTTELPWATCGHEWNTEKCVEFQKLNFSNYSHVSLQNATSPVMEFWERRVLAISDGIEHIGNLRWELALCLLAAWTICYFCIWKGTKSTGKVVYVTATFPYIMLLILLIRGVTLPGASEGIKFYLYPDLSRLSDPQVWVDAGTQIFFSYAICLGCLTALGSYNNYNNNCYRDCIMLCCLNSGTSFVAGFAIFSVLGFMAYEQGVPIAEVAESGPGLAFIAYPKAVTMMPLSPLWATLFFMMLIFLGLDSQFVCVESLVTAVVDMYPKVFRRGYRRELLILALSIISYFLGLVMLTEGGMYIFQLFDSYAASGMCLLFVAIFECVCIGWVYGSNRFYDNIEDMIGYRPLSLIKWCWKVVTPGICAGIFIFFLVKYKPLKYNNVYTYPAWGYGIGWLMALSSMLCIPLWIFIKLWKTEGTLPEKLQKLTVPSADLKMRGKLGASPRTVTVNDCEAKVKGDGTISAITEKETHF
Protocol: (§1) For compounds with pIC50 ([^3H]GABA uptake assay) or pK i (MS Binding Assays) values close to or above 5.0, these experiments were repeated twice and SEM have been calculated.
(§2) [^3H]GABA uptake assays: The [^3H]GABA uptake assays were performed according to Kragler et al.33 Cells were grown in 150 cm^2 plates to a confluence of 70–90 % up to passage 25. After detachment the cells were centrifuged 5 min at 500×g, washed for three times in phosphate buffered saline and, finally, resuspended in Krebs buffer (2.5 mM CaCl2, 1.2 mM MgSO4, 1.2 mM KH2PO4, 4.7 mM KCl, 11 mM glucose, 25 mM Tris, 119 mM NaCl, pH 7.2). The uptake assays were performed with aliquots of the resulting cell suspension (about 100000–200000 cells per well) in a total volume of 250 μl in 96 well 2.2 mL deep well plates. The cells were equilibrated for 25 min in Krebs buffer in the presence of the test compound at 37 °C in a gently shaking water bath. […] After addition of 25 μl of a solution containing [^3H]GABA (2.22 TBq/mmol, ARC, St Louis, MO, USA) and unlabeled GABA in Krebs (final concentration 8 nM [^3H]GABA and 32 nM unlabeled GABA for mGAT1, mGAT3, mGAT4 and 20 nM [^3H]GABA and 20 nM unlabeled GABA for mGAT2) the cells were incubated for further 4 min (mGAT1, mGAT3, mGAT4) or 10 minutes (mGAT2), respectively. The incubation was stopped by filtration through Sartorius MGC micro glass fiber filters pre‐soaked for 1 h in 0.9 % NaCl by means of a Brandell MWXR‐96TI cell harvester (Brandell, Gaithersburg, MD, USA) under reduced pressure. The filters were rinsed two times with cold 0.9 % NaCl and subsequently transferred to 96 well sample plates (Perkin Elmer LAS, Boston, MA, USA). After addition of 200 μl Rotiszint Eco Plus (Roth, Karlsruhe, Germany) per well the radioactivity was determined in a microbeta liquid scintillation counter (Perkin Elmer LAS, Boston, MA, USA). Non‐specific uptake was determined in presence of 10 mM GABA for mGAT1, mGAT3 and mGAT4 or 100 mM GABA for mGAT2, respectively. The results are expressed as means±S.E.M. of at least three separate experiments, each carried out in triplicate.

mGAT1 [1] = target: T2, mGAT1 (Mus musculus, UniProt P31648); experiment: [^3H]GABA uptake assay, HEK293 cells expressing mGAT1; format: cell-based; conditions: for remaining activity at 100 µM: HEK293, in presence of 100 μM compound
T2 construct: expressed in transfected cells; host or cells: HEK293
Protocol: as §1, §2

mGAT2 = target: T3, mGAT2 (Mus musculus, UniProt P31651); experiment: [^3H]GABA uptake assay, HEK293 cells expressing mGAT2; format: cell-based; conditions: HEK293; in presence of 100 μM compound
T3 construct: expressed in transfected cells; host or cells: HEK293
T3 sequence (P31651 1-614): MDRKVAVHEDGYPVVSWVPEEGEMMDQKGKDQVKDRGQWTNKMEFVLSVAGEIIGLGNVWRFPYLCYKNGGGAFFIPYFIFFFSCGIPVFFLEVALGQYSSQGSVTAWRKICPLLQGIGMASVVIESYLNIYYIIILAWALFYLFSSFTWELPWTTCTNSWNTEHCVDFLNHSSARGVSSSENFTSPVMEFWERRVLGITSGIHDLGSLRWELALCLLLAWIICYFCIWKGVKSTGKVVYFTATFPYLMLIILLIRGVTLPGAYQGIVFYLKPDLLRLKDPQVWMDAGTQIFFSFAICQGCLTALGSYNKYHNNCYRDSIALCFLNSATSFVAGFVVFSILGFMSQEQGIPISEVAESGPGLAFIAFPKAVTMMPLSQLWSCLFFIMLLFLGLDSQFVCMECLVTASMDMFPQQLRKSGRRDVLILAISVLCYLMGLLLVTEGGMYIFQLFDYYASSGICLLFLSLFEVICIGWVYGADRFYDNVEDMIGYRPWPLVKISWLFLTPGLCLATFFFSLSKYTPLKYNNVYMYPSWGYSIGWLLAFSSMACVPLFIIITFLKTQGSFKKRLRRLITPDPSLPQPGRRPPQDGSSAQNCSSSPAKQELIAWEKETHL
Protocol: as §1, §2

mGAT3 = target: T4, mGAT3 (Mus musculus, UniProt P31649); experiment: [^3H]GABA uptake assay, HEK293 cells expressing mGAT3; format: cell-based; conditions: for IC50: [^3H]GABA uptake, pIC50±SEM; for remaining activity at 100 µM: HEK293, in presence of 100 μM compound
T4 construct: expressed in transfected cells; host or cells: HEK293
T4 sequence (P31649 1-602): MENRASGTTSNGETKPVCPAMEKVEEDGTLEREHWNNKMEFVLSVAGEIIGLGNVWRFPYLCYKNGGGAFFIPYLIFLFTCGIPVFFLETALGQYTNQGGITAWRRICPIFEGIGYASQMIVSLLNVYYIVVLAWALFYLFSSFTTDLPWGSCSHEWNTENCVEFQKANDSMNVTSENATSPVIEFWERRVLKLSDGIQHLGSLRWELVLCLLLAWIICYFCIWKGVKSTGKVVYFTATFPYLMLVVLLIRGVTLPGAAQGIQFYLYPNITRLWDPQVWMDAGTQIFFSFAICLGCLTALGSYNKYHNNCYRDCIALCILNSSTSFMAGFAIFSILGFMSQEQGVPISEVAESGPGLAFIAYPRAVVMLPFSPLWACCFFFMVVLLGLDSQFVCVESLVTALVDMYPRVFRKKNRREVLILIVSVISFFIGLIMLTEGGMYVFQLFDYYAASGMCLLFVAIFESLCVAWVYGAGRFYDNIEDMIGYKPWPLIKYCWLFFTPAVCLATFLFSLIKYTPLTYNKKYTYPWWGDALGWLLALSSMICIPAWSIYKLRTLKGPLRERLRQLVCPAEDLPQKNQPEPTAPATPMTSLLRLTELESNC
Protocol: as §1, §2

mGAT1 [2] = target: T2, mGAT1; experiment: MS Binding Assay with NO711 as native MS marker; conditions: for remaining activity at 100 µM: in presence of 100 μM compound, read-out: remaining specific NO711 binding (mGAT1); for Ki: MS Binding Assay, NO711 marker, pKi±SEM, read-out: pK i mGAT1 (converted)
Protocol: as §1
MS Binding Assays: The MS Binding Assays were performed with mGAT1 membrane preparations obtained from a stably mGAT1 expressing HEK293 cell line and NO711 as unlabeled marker in competitive binding experiments as previously described in detail.34 In short, test compounds were investigated at 7 concentrations in presence of 10 nM NO 711 in competition experiments. Non specific binding was defined as binding remaining in the presence of 100 mM GABA. Incubation was terminated by transfer of 200 μL per well onto a 96‐well filter plate (Acroprep, glass fibre, 1.0 μm, 350 μL, Pall, Dreieich, Germany) with a 12 channel pipette. After rapid vacuum‐filtration the filters were washed with ice cold 0.9 % NaCl (5×150 μL) and dried at 50 °C for 60 min. Afterwards, the filters were eluted with 100 μL methanol containing [^2H10]NO711 (1.4 nM) as internal standard per well into a deep‐well plate by application of vacuum. This step was repeated twice resulting in a total elution volume of 300 μL. Finally, a volume of 130 μL ammonium formate buffer (10 mM, pH 7.0) was added per well and the generated samples analyzed by LC‐ESI‐MS/MS using a API 3200 as described in detail previously.40

| IC50 (mGAT4) | remaining activity at 100 µM (mGAT1 [1]) | remaining activity at 100 µM (mGAT2) | IC50 (mGAT3) | remaining activity at 100 µM (mGAT1 [2]) | remaining activity at 100 µM (mGAT4; in presence of 100 μM compound) | remaining activity at 100 µM (mGAT3) | IC50 (mGAT1 [1]; [^3H]GABA uptake, pIC50±SEM) | Ki (mGAT1 [2]) | remaining [^3H]GABA uptake mGAT4 (mGAT4; in presence of 100 μM compound) | Compound |
| --- | --- | --- | --- | --- | --- | --- | --- | --- | --- | --- |
| 74.1 µM | 48.5% | 51.5% | 46.8 µM | 86.5% | – | – | – | – | – | COc1ccc(C(OCCN2CCCC(C(=O)O)C2)(c2ccc(CNCCCC(=O)O)cc2)c2ccc(OC)cc2)cc1 (racemic) [5 s, rac ‐1‐{2‐[(4‐{[(3‐Carboxypropyl)amino]methyl}phenyl)bis(4‐methoxy‐phenyl)methoxy]ethyl}piperidine‐3‐carboxylic acid] |
| – | 52.4% | 76.7% | – | 84.9% | 67.6% | 59.3% | – | – | – | CCOC(=O)C1CCCN(CCOC(c2ccc(CNCCCC(=O)O)cc2)(c2ccc(OC)cc2)c2ccc(OC)cc2)C1 (racemic) [12 s, rac ‐4‐{[4‐({2‐[3‐(Ethoxycarbonyl)piperidin‐1‐yl]ethoxy}bis{4‐methoxy‐phenyl}methyl)benzyl]amino}butanoic acid] |
| 13.8 µM | – | 50.1% | 33.9 µM | – | – | – | 35.5 µM | 12.3 µM | – | COc1ccc(C(OCCN2CCC[C@@H](C(=O)O)C2)(c2ccc(C=O)cc2)c2ccc(OC)cc2)cc1 [(R)‐5 a] |
| 45.7 µM | 80.7% | 77% | – | 77% | – | 61.1% | – | – | – | COc1ccc(C(OCCN2CCCC(C(=O)O)C2)(c2ccc(CNC(C)(C)C(=O)O)cc2)c2ccc(OC)cc2)cc1 (racemic) [5 q, rac ‐1‐{2‐[(4‐{[(2‐Carboxypropan‐2‐yl)amino]methyl}phenyl)bis(4‐methoxyphenyl)methoxy]ethyl}piperidine‐3‐carboxylic acid] |
| – | 99.5% | – | – | 54.1% | 50% | 96% | – | – | 50,0% | COc1ccc(C(OCCN2CCCC(C(=O)O)C2)(c2ccc(CNc3ccc(C(=O)O)cc3)cc2)c2ccc(OC)cc2)cc1 (racemic) [5 t, rac‐ 1‐{2‐[(4‐{[(4‐Carboxyphenyl)amino]methyl}phenyl)bis(4‐methoxy‐phenyl)methoxy]ethyl}piperidine‐3‐carboxylic acid] |

More lines, now with the values behind:

| Compound | IC50 (mGAT4) | remaining activity at 100 µM (mGAT1 [1]) | remaining activity at 100 µM (mGAT2) | IC50 (mGAT3) | remaining activity at 100 µM (mGAT1 [2]) | remaining activity at 100 µM (mGAT4; in presence of 100 μM compound) | remaining activity at 100 µM (mGAT3) | IC50 (mGAT1 [1]; [^3H]GABA uptake, pIC50±SEM) | Ki (mGAT1 [2]) | remaining [^3H]GABA uptake mGAT4 (mGAT4; in presence of 100 μM compound) |
| --- | --- | --- | --- | --- | --- | --- | --- | --- | --- | --- |
| CCOC(=O)C1CCCN(CCOC(c2ccc(CNC(C)(C)C(=O)OCC)cc2)(c2ccc(OC)cc2)c2ccc(OC)cc2)C1 (racemic) [12 q, rac‐ Ethyl 1‐{2‐[(4‐{[(1‐ethoxy‐2‐methyl‐1‐oxopropan‐2‐yl)amino]methyl}‐phenyl)bis(4‐methoxyphenyl)methoxy]ethyl}piperidine‐3‐carboxylate] | – | 66.9% | 67.4% | – | 90.9% | 57.4% | 49.3% | – | – | – |
| COc1ccc(C(O)(CCCN2CCCC(C(=O)O)C2)c2ccc(OC)cc2)cc1 (racemic) [5 l, rac ‐1‐[4‐Hydroxy‐4,4‐bis(4‐methoxyphenyl)butyl]piperidine‐3‐carboxylic acid] | – | 69.5% | 62.5% | – | – | 92% | 80.7% | – | 32.4 µM | – |
| CCOC(=O)C1CCCN(CCCC(O)(c2ccc(OC)cc2)c2ccc(OC)cc2)C1 (racemic) [12 l, rac ‐Ethyl 1‐[4‐hydroxy‐4,4‐bis(4‐methoxyphenyl)butyl]piperidine‐3‐carboxylate] | – | 79.3% | 70.4% | – | 104% | 73.8% | 65% | – | – | – |
| CCOC(=O)C1CCCN(CCOC(c2ccc(COC)cc2)(c2ccc(OC)cc2)c2ccc(OC)cc2)C1 (racemic) [12 f, rac‐ Ethyl 1‐(2‐{[4‐(methoxymethyl)phenyl]bis[4‐methoxyphenyl]‐methoxy}ethyl)piperidine‐3‐carboxylate] | – | 66.6% | 58.8% | – | 55.3% | 50.8% | 56.9% | – | – | – |
